Reference: patent US6569894B1, “Arylalkylbenzofuran derivatives as melatonergic agents” (Bristol-Myers Squibb Company, priority 2001, dated 2003)

Tests used:
ML1a receptor = target: T1, ML1a receptor (Homo sapiens, UniProt P48039); experiment: Melatonergic receptor binding activity, 2-[125I]-iodomelatonin, ML1a; conditions: membrane homogenates of NIH-3T3 cells, 37° C. for 1 hour
T1 construct: expressed in transfected cells; pcDNA3)
Method: (§1) Melatonergic Receptor Binding Activity
(§2) (a) TME=50 mM Tris buffer containing 12.5 mM MgCl2, and 2 mM EDTA, pH 7.4 at 37° C., with concentrated HCl.
(§3) (b) Wash buffer: 20 mM Tris base containing 2 mM MgCl2, pH 7.4 at room temperature.
(§4) (c) 10^−4 M melatonin (10^−5 M final concentration).
(§5) (d) 2-[^125I]-iodomelatonin, […] final concentration.
2. Membrane Homogenates: The melatonin ML1α receptor cDNA was subcloned into pcDNA3 and introduced into NIH-3T3 cells using Lipofectamine. Transformed NIH-3T3 cells resistant to geneticin (G-418) were isolated, and single colonies expressing high levels of 2-[^125I]-iodomelatonin binding were isolated. Cells are maintained in DMEM supplemented with 10% calf serum and G-418 (0.5 g/liter). Cells are grown to confluency in T-175 flasks, scraped using Hank's balanced salt solution, and frozen at −80° C. For preparing membrane homogenates, pellets are thawed on ice, and re-suspended in TME buffer in the presence of 10 μg/ml aprotinin and leupeptin, and 100 μM phenylmethylsulfonylfluoride. The cells were then homogenized using a dounce homogenizer, and centrifuged. The resulting pellet was re-suspended with dounce homogenizer in TME (supplemented with the above protease inhibitors) and frozen. On the day of assay, a small aliquot was thawed on ice and re-suspended in the ice cold TME (1:50-1:100 v/v) and held on ice until assayed.
(§6) 3. Incubation: 37° C. for 1 hour. Reaction is terminated by filtration. Filters were washed 3 times.
(§7) The compounds of the present invention have affinity for receptors of the endogenous pineal hormone, melatonin, as determined in a receptor binding assays described above in Tables I to V for the ML1a and ML1b (human) receptors. Melatonin is involved in the regulation of a variety of biological rhythms and exerts its biological effects via interaction with specific receptors. There is evidence that administration of melatonin agonists are of clinical utility in the treatment of various conditions regulated by melatonin activity. Such conditions include depression, jet-lag, work-shift syndrome, sleep disorders, glaucoma, some disorders associated with reproduction, cancer benign prostatic hyperplasia, immune disorders and neuroendocrine disorders.

ML1b receptor = target: T2, ML1b receptor (Homo sapiens, UniProt P49286); experiment: Melatonergic receptor binding activity, 2-[125I]-iodomelatonin, ML1b; conditions: 37° C. for 1 hour
T2 construct: expressed in transfected cells
T2 sequence (P49286 1-362): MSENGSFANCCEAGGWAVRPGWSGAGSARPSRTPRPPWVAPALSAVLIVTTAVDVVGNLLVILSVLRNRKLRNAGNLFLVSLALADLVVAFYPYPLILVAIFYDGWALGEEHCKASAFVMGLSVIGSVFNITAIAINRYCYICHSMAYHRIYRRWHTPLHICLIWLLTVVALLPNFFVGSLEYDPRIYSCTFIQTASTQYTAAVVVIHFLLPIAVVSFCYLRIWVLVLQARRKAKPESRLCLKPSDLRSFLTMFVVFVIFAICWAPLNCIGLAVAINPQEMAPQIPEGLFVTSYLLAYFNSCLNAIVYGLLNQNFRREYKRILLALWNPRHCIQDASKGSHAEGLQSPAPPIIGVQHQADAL
Method: as §1, §2, §3, §4, §5, §6, §7

T1 sequence (P48039 whole entry): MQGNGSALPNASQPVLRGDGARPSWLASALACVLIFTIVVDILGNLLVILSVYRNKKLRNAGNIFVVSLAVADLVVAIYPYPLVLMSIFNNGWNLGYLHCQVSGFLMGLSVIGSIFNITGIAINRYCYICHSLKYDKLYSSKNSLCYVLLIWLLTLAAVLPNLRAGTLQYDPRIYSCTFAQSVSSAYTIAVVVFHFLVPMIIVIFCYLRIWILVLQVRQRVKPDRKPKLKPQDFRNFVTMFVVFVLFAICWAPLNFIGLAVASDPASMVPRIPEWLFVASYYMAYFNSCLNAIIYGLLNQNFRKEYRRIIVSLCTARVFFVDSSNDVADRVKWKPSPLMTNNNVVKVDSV

| Compound | melting point [°C] | IC50 (ML1a receptor; Table V) [nM] | IC50 (ML1b receptor; Table V) [nM] | IC50 (ML1a receptor; Table III) [nM] | IC50 (ML1b receptor; Table III) [nM] | further results |
| --- | --- | --- | --- | --- | --- | --- |
| CC(=O)NCCCc1cccc2c1C[C@H](CCCCc1ccccc1)O2 (stereo in doubt) [Example 1, N-[3-[2-(4-Phenylbutyl)-2,3-dihydrobenzofuran-4-yl]propyl]acetamide] | 40 to 41 |  |  |  |  | IC50 (ML1a receptor; Table I): < 10 nM; IC50 (ML1b receptor; Table I): 10 to 250 nM |
| O=C(NCCCc1cccc2c1C[C@H](CCCCc1ccccc1)O2)C1CC1 (stereo in doubt) [Example 5, N-[3-[2-(4-Phenylbutyl)-2,3-dihydrobenzofuran-4-yl]propyl]cyclopropanecarboxamide] | 63 to 64 |  |  |  |  | IC50 (ML1a receptor; Table I): < 10 nM; IC50 (ML1b receptor; Table I): 10 to 250 nM |
| O=C(NCCCc1cccc2oc(CCCCc3ccccc3)cc12)C1CC1 [Example 7, N-[3-[2-(4-Phenylbutyl)benzofuran-4-yl]propyl]cyclopropanecarboxamide] | 70 to 71 |  |  |  |  | IC50 (ML1a receptor; Table II): 10 to 250 nM; IC50 (ML1b receptor; Table II): 10 to 250 nM |
| CC(=O)NC[C@@H]1C[C@H]1c1cccc2c1C[C@@H](CCCCc1ccccc1)O2 [Example 42, N-({2-[(2R)-2-(4-Phenylbutyl)(2,3-dihydrobenzo[b]furan-4-yl)]-(1R,2R)cyclopropyl}methyl)acetamide] | 65 to 66 | < 10 | < 10 |  |  |  |
| CCCC(=O)NC[C@@H]1C[C@H]1c1cccc2c1C[C@@H](CCCCc1ccccc1)O2 [Example 44, N-({2-[(2R)-2-(4-Phenylbutyl)(2,3-dihydrobenzo[b]furan-4-yl)]-(1R,2R)cyclopropyl}methyl)butanamide] |  | < 10 | < 10 |  |  |  |
| CC(C)C(=O)NC[C@@H]1C[C@H]1c1cccc2c1C[C@@H](CCCCc1ccccc1)O2 [Example 45, N-({2-[(2R)-2-(4-Phenylbutyl)(2,3-dihydrobenzo[b]furan-4-yl)]-(1R,2R)cyclopropyl}methyl)-2-methylpropanamide] |  | 10 to 250 | 10 to 250 |  |  |  |
| O=C(NC[C@@H]1C[C@H]1c1cccc2c1C[C@@H](CCCCc1ccccc1)O2)C1CC1 [Example 46, N-({2-[(2R)-2-(4-Phenylbutyl)(2,3-dihydrobenzo[b]furan-4-yl)]-(1R,2R)cyclopropyl}methyl)cyclopropylcarboxamide] |  | < 10 | 10 to 250 |  |  |  |
| CCNC(=O)NC[C@@H]1C[C@H]1c1cccc2c1C[C@@H](CCCCc1ccccc1)O2 [Example 47, N-({2-[(2R)-2-(4-Phenylbutyl)(2,3-dihydrobenzo[b]furan-4-yl)]-(1R,2R)cyclopropyl}methyl)(ethylamino)carboxamide] | 69 to 70 | 10 to 250 | 10 to 250 |  |  |  |
| CCNC(=O)NCC1CC1c1c(Cl)ccc2c1CC(CCCCc1ccccc1)O2 [Example 48, N-({2-[2R)-5-Chloro-2-(4-phenylbutyl)(2,3-dihydrobenzo[b]furan-4-yl)]-(1R,2R)cyclopropyl}methyl)(ethylamino)carboxamide] | 126 to 128 | 10 to 250 | 10 to 250 |  |  |  |
| N-3-(2-(2-Phenyleth-1-yl)benzofuran-3-yl)prop-1-yl Acetamide [Example 23] |  |  |  | 10 to 250 | 10 to 250 |  |
| N-3-(2-(2-Phenyleth-1-yl)benzofuran-3-yl)prop-1-yl Butyramide [Example 25] |  |  |  | 10 to 250 | 10 to 250 |  |
| N-3-(2-(2-Phenyleth-1-yl)benzofuran-3-yl)prop-1-yl Propanamide [Example 24] |  |  |  | 10 to 250 | 10 to 250 |  |
| N-3-(2-(2-Phenyleth-1-yl)benzofuran-3-yl)prop-1-yl-cyclopropanecarboxamide [Example 26] |  |  |  | 10 to 250 | 10 to 250 |  |
| N-3-(2-(3-Phenylprop-1-yl)benzofuran-3-yl)prop-1-yl Acetamide [Example 19] |  |  |  | < 10 | 10 to 250 |  |
| N-3-(2-(3-Phenylprop-1-yl)benzofuran-3-yl)prop-1-yl Butyramide [Example 21] |  |  |  | 10 to 250 | > 250 |  |
| N-3-(2-(3-Phenylprop-1-yl)benzofuran-3-yl)prop-1-yl Cyclopropanecarboxamide [Example 22] |  |  |  | 10 to 250 | > 250 |  |
| N-3-(2-(3-Phenylprop-1-yl)benzofuran-3-yl)prop-1-yl Propanamide [Example 20] |  |  |  | 10 to 250 | > 250 |  |
| N-({2-[(2R)-5,7-Dichloro-2-(4-phenylbutyl)(2,3-dihydrobenzo[b]furan-4-yl)](1R,2R)cyclopropyl}methyl)butanamide [Example 49] |  | > 250 | 10 to 250 |  |  |  |
| N-{3-[3-Chloro-2-(4-phenylbutyl)benzo[b]furan-4-yl]-propyl}ethoxycarboxamide [Example 27] |  |  |  | > 250 | > 250 |  |
